Target: human plasma kallikrein (Homo sapiens (Human), UniProt P03952)
Experiment: Plasma Kallikrein Activity Assay (chromogenic substrate S2302)
Type: biochemical
Details: 2 nM kallikrein, 80 μM S2302, 30° C., pH 7.8; Cheng-Prusoff
Description: Plasma Kallikrein Activity Assay.
The effect of compounds of the invention on human plasma kallikrein activity was determined using the chromogenic substrates (DiaPharma Group, Inc., West Chester, Ohio, USA). In these experiments, 2 nM kallikrein (Enzyme Research Laboratories, South Bend, Ind., USA) was incubated with 80 μM S2302 (H-D-Pro-Phe-Arg-p-nitroaniline) in the absence or presence of increasing concentrations of compounds of the invention in a final volume of 200 μL Tris-HCl buffer (200 mM NaCl; 2.5 mM CaCl2; 50 mM Tris-HCl, pH 7.8).
After incubation at 30° C., the activity of kallikrein was measured as a change in absorbance at OD 405 nm using BioTek PowerWave X340 Microplate Reader (Winooski, Vt., USA). Data were analyzed using SigmaPlot software (Systat Software, Inc., San Jose, Calif., USA) (Four Parameter Logistic Curve). Ki values for the inhibitors were determined using the Cheng-Prusoff equation (Biochem. Pharmacol. 1973, 22, 3099).

Chain of human plasma kallikrein (P03952 391-638): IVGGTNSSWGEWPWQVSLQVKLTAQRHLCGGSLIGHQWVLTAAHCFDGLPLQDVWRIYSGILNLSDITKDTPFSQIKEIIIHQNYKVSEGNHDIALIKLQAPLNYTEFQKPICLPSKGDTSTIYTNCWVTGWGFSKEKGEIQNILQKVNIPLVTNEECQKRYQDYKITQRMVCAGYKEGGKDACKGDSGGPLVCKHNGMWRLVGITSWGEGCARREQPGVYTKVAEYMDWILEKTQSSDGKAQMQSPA
Chain of human plasma kallikrein (P03952 20-390 partner): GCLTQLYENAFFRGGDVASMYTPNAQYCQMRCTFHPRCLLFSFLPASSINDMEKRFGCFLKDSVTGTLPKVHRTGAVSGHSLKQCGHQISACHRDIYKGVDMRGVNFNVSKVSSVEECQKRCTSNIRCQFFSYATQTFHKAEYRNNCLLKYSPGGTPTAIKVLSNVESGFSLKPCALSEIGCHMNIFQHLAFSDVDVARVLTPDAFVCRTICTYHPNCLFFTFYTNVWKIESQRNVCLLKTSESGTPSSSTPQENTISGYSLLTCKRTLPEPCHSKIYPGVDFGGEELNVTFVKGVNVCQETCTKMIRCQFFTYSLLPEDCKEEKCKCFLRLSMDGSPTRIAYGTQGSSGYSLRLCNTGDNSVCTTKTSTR

| SMILES | Ki [nM] |
| --- | --- |
| O=C(Nc1ccccc1F)[C@H]1C[C@@H](O)CN1C(=O)Nc1ccc(Cl)cc1 [Compound 2a, (2R,4R)-N1-(4-chlorophenyl)-N2-(2-fluorophenyl)-4-hydroxypyrrolidine-1,2-dicarboxamide] | > 100 |
| CO[C@@H]1C[C@H](C(=O)Nc2cc(C(CCC3CC3)(N[S@+]([O-])C(C)(C)C)c3ccccc3)ccc2F)N(C(=O)Nc2ccc(Cl)cn2)C1 (stereo partly drawn) [Compound 66c, (2R,4R)-N1-(5-chloropyridin-2-yl)-N2-(5-((+)-3-cyclopropyl-1-((R)-1,1-dimethylethylsulfinamido)-1-phenylpropyl)-2-fluorophenyl)-4-methoxypyrrolidine-1,2-dicarboxamide] | > 100 |
| CC(C)(C)[S@@+]([O-])NC(CCC1CC1)(c1cccc(C#N)c1)c1ccc(F)c(NC(=O)[C@@H]2CCCN2C(=O)Nc2ccc(Cl)cc2)c1 (stereo partly drawn) [Compound 8b, (S)-N1-(4-chlorophenyl)-N2-(5-((−)-1-(3-cyanophenyl)-3-cyclopropyl-1-((R)-1,1-dimethylethylsulfinamido)propyl)-2-fluorophenyl)pyrrolidine-1,2-dicarboxamide] | > 100 |
| CO[C@@H]1C[C@H](C(=O)Nc2cc(C(CCC3CC3)(NS(C)(=O)=O)c3ccncc3)ccc2F)N(C(=O)Nc2ccc(Cl)cn2)C1 (stereo partly drawn) [Compound 74a, (2R,4R)-N1-(5-chloropyridin-2-yl)-N2-(5-((+)-3-cyclopropyl-1-(methylsulfonamido)-1-(pyridin-4-yl)propyl)-2-fluorophenyl)-4-methoxypyrrolidine-1,2-dicarboxamide] | < 50 |
| CCCO[C@@H]1C[C@H](C(=O)Nc2cc(C(N)(CCC3CC3)c3ccncc3)ccc2F)N(C(=O)Nc2ccc(Cl)cn2)C1 (stereo partly drawn) [Compound 52d, (2R,4R)-N2-(5-((+)-1-amino-3-cyclopropyl-1-(pyridin-4-yl)propyl)-2-fluorophenyl)-N1-(5-chloropyridin-2-yl)-4-propoxypyrrolidine-1,2-dicarboxamide] | < 50 |
| CO[C@@H]1C[C@H](C(=O)Nc2cc(C(N)(CCC3CC3)c3ccncc3)ccc2F)N(C(=O)c2ccc(Cl)c(N)c2)C1 (stereo partly drawn) [Compound 84a, (2R,4R)-N-(5-((+)-1-amino-3-cyclopropyl-1-(pyridin-4-yl)propyl)-2-fluorophenyl)-1-(3-amino-4-chlorobenzoyl)-4-methoxypyrrolidine-2-carboxamide] | > 100 |
| NC(CCC1CC1)(c1ccc(F)c(NC(=O)[C@H]2C[C@@H](O)CN2C(=O)Nc2ccc(Cl)cn2)c1)c1ccccn1 (stereo partly drawn) [Compound 62c, (2R,4R)-N2-(5-((+)-1-amino-3-cyclopropyl-1-(pyridin-2-yl)propyl)-2-fluorophenyl)-N1-(5-chloropyridin-2-yl)-4-hydroxypyrrolidine-1,2-dicarboxamide] | < 50 |
| O=C(Nc1ccc(Cl)cn1)NC(CCC1CC1)(c1ccc(F)c(NC(=O)[C@H]2C[C@](O)(c3ccccc3)CN2C(=O)Nc2ccc(Cl)cn2)c1)c1ccccn1 (stereo partly drawn) [Compound 32b, (2R,4S)-N1-(5-chloropyridin-2-yl)-N2-(5-(1-(3-(5-chloropyridin-2-yl)ureido)-3-cyclopropyl-1-(pyridin-2-yl)propyl)-2-fluorophenyl)-4-hydroxy-4-phenylpyrrolidine-1,2-dicarboxamide] | > 100 |
| NC(CCC1CC1)(c1ccc(F)c(NC(=O)[C@H]2C[C@](O)(c3ccccc3)CN2C(=O)Nc2ccc(Cl)cn2)c1)c1ccccn1 (stereo partly drawn) [Compound 32a, (2R,4S)-N2-(5-((+)-1-amino-3-cyclopropyl-1-(pyridin-2-yl)propyl)-2-fluorophenyl)-N1-(5-chloropyridin-2-yl)-4-hydroxy-4-phenylpyrrolidine-1,2-dicarboxamide] | < 50 |
| CO[C@@H]1C[C@H](C(=O)Nc2cc(C(CCC3CC3)n3ccccc3=O)ccc2F)N(C(=O)Nc2ccc(Cl)cn2)C1 (stereo partly drawn) [Compound 42l, (2R,4R)-N1-(5-chloropyridin-2-yl)-N2-(5-(3-cyclopropyl-1-(2-oxopyridin-1(2H)-yl)propyl)-2-fluorophenyl)-4-methoxypyrrolidine-1,2-dicarboxamide] | < 50 |
| N#Cc1cccc(C(N)(CCC2CC2)c2ccc(F)c(NC(=O)[C@H]3CC(=O)CN3C(=O)Nc3ccc(Cl)cc3)c2)c1 (stereo partly drawn) [Compound 20b, (R)-N2-(5-(1-amino-1-(3-cyanophenyl)-3-cyclopropylpropyl)-2-fluorophenyl)-N1-(4-chlorophenyl)-4-oxopyrrolidine-1,2-dicarboxamide] | > 100 |
| C[C@H]1C[C@H](C(=O)Nc2cc(C(N)(CCC3CC3)c3ccncc3)ccc2F)N(C(=O)Nc2ccc(Cl)cn2)C1 (stereo partly drawn) [Compound 48d, (2R,4S)-N2-(5-((+)-1-amino-3-cyclopropyl-1-(pyridin-4-yl)propyl)-2-fluorophenyl)-N1-(5-chloropyridin-2-yl)-4-methylpyrrolidine-1,2-dicarboxamide] | < 50 |
| CC(C)(C)[S@@+]([O-])NC(CCC1CC1)(c1ccncc1)c1ccc(F)c(NC(=O)[C@H]2C[C@@H](O)CN2C(=O)Nc2ccc(Cl)cc2)c1 (stereo partly drawn) [Compound 68a, (2R,4R)-N1-(4-chlorophenyl)-N2-(5-(3-cyclopropyl-1-((R)-1,1-dimethylethylsulfinamido)-1-(pyridin-4-yl)propyl)-2-fluorophenyl)-4-hydroxypyrrolidine-1,2-dicarboxamide] | < 50 |
| CNC(CCC1CC1)(c1ccnc(C)c1)c1ccc(F)c(NC(=O)[C@H]2C[C@@H](OC)CN2C(=O)Nc2ccc(Cl)cn2)c1 (stereo partly drawn) [Compound 79a, (2R,4R)-N1-(5-chloropyridin-2-yl)-N2-(5-((+)-3-cyclopropyl-1-(methylamino)-1-(2-methylpyridin-4-yl)propyl)-2-fluorophenyl)-4-methoxypyrrolidine-1,2-dicarboxamide] | < 50 |
| CO[C@@H]1C[C@@H](C(=O)Nc2cc(C(CCC3CC3)(N[S@+]([O-])C(C)(C)C)c3cccc(C#N)c3)ccc2F)N(C(=O)N(C)c2ccc(Cl)cc2)C1 (stereo partly drawn) [Compound 6d, (2S,4R)-N1-(4-chlorophenyl)-N2-(5-(1-(3-cyanophenyl)-3-cyclopropyl-1-((R)-1,1-dimethylethylsulfinamido)propyl)-2-fluorophenyl)-4-methoxy-N1-methylpyrrolidine-1,2-dicarboxamide] | > 100 |
| CCNC(CCC1CC1)(c1ccnc(C)c1)c1ccc(F)c(NC(=O)[C@H]2C[C@@H](OC)CN2C(=O)Nc2ccc(Cl)cn2)c1 (stereo partly drawn) [Compound 78a, (2R,4R)-N1-(5-chloropyridin-2-yl)-N2-(5-((+)-3-cyclopropyl-1-(ethylamino)-1-(2-methylpyridin-4-yl)propyl)-2-fluorophenyl)-4-methoxypyrrolidine-1,2-dicarboxamide] | < 50 |
| CO[C@@H]1C[C@H](C(=O)Nc2cc(C(N)(CCC3CC3)c3ccccn3)ccc2F)N(C(=O)Nc2ccc(Cl)cn2)C1 (stereo partly drawn) [Compound 36d, (2R,4R)-N2-(5-((+)-1-amino-3-cyclopropyl-1-(pyridin-2-yl)propyl)-2-fluorophenyl)-N1-(5-chloropyridin-2-yl)-4-methoxypyrrolidine-1,2-dicarboxamide] | > 100 |
| CO[C@H]1C[C@@H](C(=O)Nc2cc(C(CCC3CC3)(N[S@+]([O-])C(C)(C)C)c3cccc(C#N)c3)ccc2F)N(C(=O)Nc2ccc(Cl)cc2)C1 (stereo partly drawn) [Compound 11d, (2S,4S)-N1-(4-chlorophenyl)-N2-(5-(1-(3-cyanophenyl)-3-cyclopropyl-1-((R)-1,1-dimethylethylsulfinamido)propyl)-2-fluorophenyl)-4-methoxypyrrolidine-1,2-dicarboxamide] | > 100 |
